Source: publication PMC8131219 (Chemical research in toxicology, 2020)
Read-outs that look alike come from different tables or passages of the source.

Experiments:
[1] = molecular target: T1, human VMAT2 (Homo sapiens, UniProt Q05940); assay: cell-based; conditions: for VMAT2 inhibitor strength (in words): short-term exposure, up to 100 μM; for Effect on FFN206 uptake / vesicular loading: tested at 0.01, 0.1, 1, 10 and 100 μM
[2] = molecular target: T1, human VMAT2; assay: Real-time uptake of FFN206 with confocal microscopy in HEK+VMAT2 cells; assay type: cell-based; conditions: 20 μM FFN206; one-way ANOVA, p <0.0001 vs HEK+VMAT2
[3] = 100 nM rotenone; after 48 hours; from mitochondrial complex I inhibition; cited from earlier work

T1 sequence (Q05940 whole entry): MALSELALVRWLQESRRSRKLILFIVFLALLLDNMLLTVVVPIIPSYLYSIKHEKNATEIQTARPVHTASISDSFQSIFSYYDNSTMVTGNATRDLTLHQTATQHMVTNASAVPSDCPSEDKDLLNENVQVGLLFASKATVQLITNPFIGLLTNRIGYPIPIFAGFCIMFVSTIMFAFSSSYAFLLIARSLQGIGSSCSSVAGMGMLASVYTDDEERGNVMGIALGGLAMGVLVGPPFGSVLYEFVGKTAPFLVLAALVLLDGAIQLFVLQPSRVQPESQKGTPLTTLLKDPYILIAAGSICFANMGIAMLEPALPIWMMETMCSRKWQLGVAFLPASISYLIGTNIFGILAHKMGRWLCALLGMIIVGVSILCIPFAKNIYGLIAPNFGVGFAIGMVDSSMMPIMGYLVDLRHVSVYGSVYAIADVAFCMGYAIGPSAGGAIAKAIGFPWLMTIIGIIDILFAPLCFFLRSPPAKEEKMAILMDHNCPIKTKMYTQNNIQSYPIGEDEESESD

## O=S(=O)(O)C(F)(F)C(F)(F)C(F)(F)C(F)(F)C(F)(F)C(F)(F)C(F)(F)C(F)(F)F [PFOS, perfluorooctanesulfonic acid]
[1]; HEK+VMAT2 cells
  VMAT2 inhibitor strength (in words): weak inhibitors of VMAT2
  Effect on FFN206 uptake / vesicular loading: did not show impairment of vesicular loading

## CO/C1=C\C(C)=C\[C@@H](C)[C@@H](O)[C@@H](C)C/C(C)=C/C=C/[C@H](OC)[C@@H]([C@@H](C)[C@@H](O)[C@H](C)[C@@]2(O)C[C@@H](O)[C@H](C)[C@@H](C(C)C)O2)OC1=O [bafilomycin, reference compound]
[1]; HEK+VMAT2 cells, 10 μM tetrabenazine, bafilomycin data not shown
  Effect on FFN206 fluorescence: depleted FFN206 fluorescence
[2]
  FFN206 fluorescence in final 20 seconds of 1000 seconds uptake vs HEK+VMAT2: decreased FFN206 fluorescence

## CCOP(=S)(OCC)Oc1nc(Cl)c(Cl)cc1Cl [chlorpyrifos]
[1]; HEK+VMAT2 cells
  Effect on FFN206 uptake / vesicular loading: minor decrease in FFN206 uptake at the highest concentration

## CN[C@@H](C)Cc1ccccc1 [methamphetamine, reference compound]
[1]
  IC50: 2.4 µM
[1]; HEK+VMAT2 cells, dose response, 1 μM FFN206
  Concentration showing essentially complete / total inhibition of VMAT2: ≤ 100 µM

## COC(=O)C(c1ccccc1)C1CCCCN1 (centres unmarked) [methylphenidate, reference compound]
[1]
  IC50: 94.3 µM

## C[n+]1ccc(-c2cc[n+](C)cc2)cc1 [paraquat]
[1]
  IC50: 12.4 µM

## C=C(C)[C@H]1Cc2c(ccc3c2O[C@@H]2COc4cc(OC)c(OC)cc4[C@@H]2C3=O)O1 [rotenone]
[1]; HEK+VMAT2 cells, 90 minutes total exposure
  Concentration at which a reduction in VMAT2 function was detected: 100 µM
[1]; HEK+VMAT2 cells
  Effect on FFN206 uptake / vesicular loading: minor decrease in FFN206 uptake at the highest concentration
[3]
  Cell death: 70–80%

## COc1cc2c(cc1OC)C1CC(=O)C(CC(C)C)CN1CC2 (centres unmarked) [tetrabenazine, reference compound]
[1]
  Concentration showing essentially complete / total inhibition of VMAT2: 1 µM
  Effect on FFN206 fluorescence: almost total loss of FFN206 fluorescence
[2]
  FFN206 fluorescence in final 20 seconds of 1000 seconds uptake vs HEK+VMAT2: significant differences

## hexabromocyclododecane
[1]; HEK+VMAT2 cells
  VMAT2 inhibitor strength (in words): weak inhibitors of VMAT2
  Effect on FFN206 uptake / vesicular loading: did not show impairment of vesicular loading
